Assay results reported in US20220033397A1, “PHARMACEUTICAL COMPOUNDS AND THEIR USE AS INHIBITORS OF UBIQUITIN SPECIFIC PROTEASE 19 (USP19)” (ALMAC DISCOVERY LIMITED, priority 2018, published 2022).

target: T1, Full-length USP19 (Homo sapiens, UniProt O94966); assay: USP19 fluorescence polarisation (FP) homogeneous assay with Ubiquitin-Lys-TAMRA substrate; assay type: biochemical; conditions: 2.5 nM USP19, 30 min pre-incubation, average of at least two duplicate experiments
T1 construct: Full-length USP19 was purchased from Boston Biochem (E-576); purchased Boston Biochem E-576
T1 sequence (O94966 1-1318): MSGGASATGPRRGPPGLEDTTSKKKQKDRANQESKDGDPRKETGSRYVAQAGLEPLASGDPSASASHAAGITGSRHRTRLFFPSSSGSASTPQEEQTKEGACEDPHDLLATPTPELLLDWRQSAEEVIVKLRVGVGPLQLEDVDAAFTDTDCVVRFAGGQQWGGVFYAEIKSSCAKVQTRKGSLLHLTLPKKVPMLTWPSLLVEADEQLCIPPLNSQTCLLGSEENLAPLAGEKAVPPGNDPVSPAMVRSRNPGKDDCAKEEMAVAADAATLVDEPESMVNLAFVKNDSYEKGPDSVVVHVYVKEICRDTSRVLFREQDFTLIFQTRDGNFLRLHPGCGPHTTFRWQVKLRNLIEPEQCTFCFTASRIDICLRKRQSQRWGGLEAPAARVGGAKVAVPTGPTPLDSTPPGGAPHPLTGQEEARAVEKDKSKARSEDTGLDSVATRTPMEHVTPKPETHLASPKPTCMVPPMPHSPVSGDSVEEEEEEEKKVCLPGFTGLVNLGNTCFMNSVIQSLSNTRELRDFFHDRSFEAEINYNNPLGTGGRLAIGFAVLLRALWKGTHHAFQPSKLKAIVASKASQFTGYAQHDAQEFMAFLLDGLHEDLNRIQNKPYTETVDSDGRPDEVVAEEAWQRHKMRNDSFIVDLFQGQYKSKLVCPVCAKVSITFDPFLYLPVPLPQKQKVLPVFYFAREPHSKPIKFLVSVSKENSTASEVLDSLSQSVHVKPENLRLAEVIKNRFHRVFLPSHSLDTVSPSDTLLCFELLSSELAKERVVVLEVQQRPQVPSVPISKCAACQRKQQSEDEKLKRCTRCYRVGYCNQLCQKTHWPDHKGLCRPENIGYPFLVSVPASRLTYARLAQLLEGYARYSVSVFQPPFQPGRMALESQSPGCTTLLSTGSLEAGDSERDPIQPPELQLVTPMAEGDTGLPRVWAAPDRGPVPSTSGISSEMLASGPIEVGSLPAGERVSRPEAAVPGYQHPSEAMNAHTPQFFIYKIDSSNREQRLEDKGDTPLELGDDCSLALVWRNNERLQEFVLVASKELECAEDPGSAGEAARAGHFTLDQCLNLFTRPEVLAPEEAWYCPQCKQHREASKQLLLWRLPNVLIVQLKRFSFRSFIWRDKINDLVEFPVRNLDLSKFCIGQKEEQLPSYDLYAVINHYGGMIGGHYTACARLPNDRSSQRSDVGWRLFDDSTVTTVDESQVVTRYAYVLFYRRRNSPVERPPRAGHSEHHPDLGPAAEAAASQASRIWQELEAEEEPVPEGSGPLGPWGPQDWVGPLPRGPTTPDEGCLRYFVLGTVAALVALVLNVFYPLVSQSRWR
Summary of the method: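 Full-length USP19 preincubated 30 min at RT with inhibitor (200 μM to 2 μM series, 8–18 points) before adding 500 nM Ubiquitin-Lys-TAMRA substrate.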

SMILES | IC50 [µM]
O=C(N1CC[C@@](O)(Cn2cnc(-c3ccccc3)cc2=O)C2(CCCC2)C1)N1CCCN1c1ccccc1 [Example 299, (S)-3-((10-Hydroxy-7-(2-phenylpyrazolidine-1-carbonyl)-7-azaspiro[4.5]decan-10-yl)methyl)-6-phenylpyrimidin-4(3H)-one] | 0.5 to 5
O=C(NCc1c(F)cccc1F)N1CC[C@@](O)(Cn2cnc(-c3ccccc3)cc2=O)C2(CCCC2)C1 [Example 302, (S)—N-(2,6-Difluorobenzyl)-10-hydroxy-10-((6-oxo-4-phenylpyrimidin-1(6H)-yl)methyl)-7-azaspiro[4.5]decane-7-carboxamide] | < 0.5
O=C(NCc1ccc(F)cc1F)N1CC[C@@](O)(Cn2cnc(-c3ccccc3)cc2=O)C2(CCCC2)C1 [Example 303, (S)—N-(2,4-Difluorobenzyl)-10-hydroxy-10-((6-oxo-4-phenylpyrimidin-1(6H)-yl)methyl)-7-azaspiro[4.5]decane-7-carboxamide] | < 0.5
O=C(NCc1ccc(F)c(F)c1)N1CC[C@@](O)(Cn2cnc(-c3ccccc3)cc2=O)C2(CCCC2)C1 [Example 304, (S)—N-(3,4-Difluorobenzyl)-10-hydroxy-10-((6-oxo-4-phenylpyrimidin-1(6H)-yl)methyl)-7-azaspiro[4.5]decane-7-carboxamide] | < 0.5
O=C(N1CCC(O)(Cn2cnc(-c3ccccc3)cc2=O)C2(CCC2)C1)N1CCOC[C@H]1c1ccccc1 (stereo partly drawn) [Example 305, 3-((9-Hydroxy-6-((R)-3-phenylmorpholine-4-carbonyl)-6-azaspiro[3.5]nonan-9-yl)methyl)-6-phenylpyrimidin-4(3H)-one] | < 0.5
O=C(N1CCC(O)(Cn2cnc(-c3ccccc3)cc2=O)C2(CCC2)C1)N1CCNC[C@H]1c1ccccc1 (stereo partly drawn) [Example 306, 3-((9-Hydroxy-6-((R)-2-phenylpiperazine-1-carbonyl)-6-azaspiro[3.5]nonan-9-yl)methyl)-6-phenylpyrimidin-4(3H)-one] | < 0.5
O=C(NCC1CC(F)(F)C1)N1CC[C@@](O)(Cn2cnc(-c3ccccc3)cc2=O)C2(CCCC2)C1 [Example 307, (S)—N-((3,3-Difluorocyclobutyl)methyl)-10-hydroxy-10-((6-oxo-4-phenylpyrimidin-1(6H)-yl)methyl)-7-azaspiro[4.5]decane-7-carboxamide] | < 0.5
O=C(NC(C(F)(F)F)C(F)(F)F)N1CC[C@@](O)(Cn2cnc(-c3ccccc3)cc2=O)C2(CCCC2)C1 [Example 308, (S)—N-(1,1,1,3,3,3-Hexafluoropropan-2-yl)-10-hydroxy-10-((6-oxo-4-phenylpyrimidin-1(6H)-yl)methyl)-7-azaspiro[4.5]decane-7-carboxamide] | 0.5 to 5

Second part, the molecule after the results:

IC50 [µM] | SMILES
< 0.5 | O=C(N1CCC(O)(Cn2cnc(-c3ccccc3)cc2=O)CC1)N1CCNC[C@H]1c1ccccc1 [Example 297, (R)-3-((4-Hydroxy-1-(2-phenylpiperazine-1-carbonyl)piperidin-4-yl)methyl)-6-phenylpyrimidin-4(3H)-one]
< 0.5 | O=C(N1CCC(O)(Cn2cnc(-c3ccccc3)cc2=O)C2(CCCCC2)C1)N1CCNC[C@H]1c1ccccc1 (stereo partly drawn) [Example 298, 3-((5-Hydroxy-2-((R)-2-phenylpiperazine-1-carbonyl)-2-azaspiro[5.5]undecan-5-yl)methyl)-6-phenylpyrimidin-4(3H)-one]
< 0.5 | Cc1cc(=O)n(C[C@]2(O)CCN(C(=O)N3CCNC[C@H]3c3ccccc3)CC23CCCC3)cn1 [Example 300, 3-(((S)-10-Hydroxy-7-((R)-2-phenylpiperazine-1-carbonyl)-7-azaspiro[4.5]decan-10-yl)methyl)-6-methylpyrimidin-4(3H)-one]
< 0.5 | O=C(NCc1cccc(F)c1F)N1CC[C@@](O)(Cn2cnc(-c3ccccc3)cc2=O)C2(CCCC2)C1 [Example 301, (S)—N-(2,3-Difluorobenzyl)-10-hydroxy-10-((6-oxo-4-phenylpyrimidin-1(6H)-yl)methyl)-7-azaspiro[4.5]decane-7-carboxamide]
